Laboratory results taken from patent publication US20260125382A1, “COMPOUNDS FOR INHIBITING OR DEGRADING CDK2 AND/OR CDK9 AND MEDICINAL USE THEREOF” (KOREA RESEARCH INSTITUTE OF CHEMICAL TECHNOLOGY, priority 2022, published 2026).

Assays:
CDK9 = target: T1, CDK9 (Homo sapiens, UniProt P50750); assay: CDK protein degradation activity (Western blotting), CDK9; assay type: cell-based; conditions: MDA-MB-231 cells, 16 hours, Western blot
T1 construct: endogenous in cells; host or cells: MDA-MB-231
Experimental: (§1) In order to evaluate the CDK protein degradation activity of the compounds according to the present invention, the following experiment was conducted.
(§2) MDA-MB-231 cells were seeded at 5×10^5 cells per well in a 6-well plate. The next day, the compounds were treated in each well to achieve final concentrations of 100 nM, 1 μM, and 10 μM. For the control group, an equal amount of DMSO was treated in the well as the compound. After 16 hours of treatment, cells were collected, and cell lysates were prepared using Triton X-100 lysis buffer (50 mM HEPES, pH 7.5, 40 mM NaCl, 1% Triton X-100, 1 mM EDTA, 1 mM EGTA, 10 mM pyrophosphate, 10 mM β-glycerophosphate, 50 mM NaF, 1 mM NaVO4, protease inhibitor). Cell lysates were quantified and separated by size using sodium dodecyl sulfate-polyacrylamide gel electrophoresis (SDS-PAGE). Western blotting was then performed using antibodies that recognize CDK2, CDK9, and tubulin, respectively. The results obtained by Western blotting were quantitatively analyzed using the ImageJ program, and representative images according to the experimental results are shown in FIG. 1.

CDK2 = target: T2, CDK2 (Homo sapiens, UniProt P24941); assay: CDK protein degradation activity (Western blotting), CDK2; assay type: cell-based; conditions: MDA-MB-231 cells, 16 hours, Western blot
T2 construct: endogenous in cells; host or cells: MDA-MB-231
Experimental: as §1, §2

T1 sequence (P50750 whole entry): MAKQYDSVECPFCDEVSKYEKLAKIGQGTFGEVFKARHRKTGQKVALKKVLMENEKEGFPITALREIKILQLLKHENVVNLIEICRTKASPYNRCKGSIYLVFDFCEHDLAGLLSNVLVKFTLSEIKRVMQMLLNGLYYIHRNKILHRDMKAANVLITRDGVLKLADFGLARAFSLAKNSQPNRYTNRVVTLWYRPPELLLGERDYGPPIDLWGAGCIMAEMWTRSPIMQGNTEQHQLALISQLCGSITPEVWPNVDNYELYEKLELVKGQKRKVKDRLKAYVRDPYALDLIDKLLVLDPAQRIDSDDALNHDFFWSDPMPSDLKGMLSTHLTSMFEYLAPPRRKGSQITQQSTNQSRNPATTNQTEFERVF

Row | Structure (SMILES) | Enzyme degradation CDK9 (% remaining) @ 0.1 μM (CDK9) | Enzyme degradation CDK9 (% remaining) @ 1 μM (CDK9) | Enzyme degradation CDK9 (% remaining) @ 10 μM (CDK9) | Enzyme degradation CDK2 (% remaining) @ 0.1 μM (CDK2) | Enzyme degradation CDK2 (% remaining) @ 1 μM (CDK2) | Enzyme degradation CDK2 (% remaining) @ 10 μM (CDK2)
1 | Cc1cccc(C(=O)N[C@H]2C[C@@H](n3cnc4c(NC5CCN(C(=O)CC6CCN(C(=O)COc7cccc8c7C(=O)N([C@H]7CCC(=O)NC7=O)C8=O)CC6)CC5)ncnc43)C2)n1 [Compound 50, N-((1s,3s)-3-(6-((1-(2-(1-(2-((2-(2,6-dioxopiperidin-3-yl)-1,3-dioxoisoindolin-4-yl)oxy)acetyl)piperidin-4-yl)acetyl)piperidin-4-yl)amino)-9H-purin-9-yl)cyclobutyl)-6-methylpicolinamide] | 90% | 60% | 20% | 80% | 40% | 10%
2 | Cc1cccc(C(=O)NC2CC(n3cnc4c(NC5CCN(C(=O)CC6CCN(C(=O)CNc7cccc8c7C(=O)N([C@H]7CCC(=O)NC7=O)C8=O)CC6)CC5)ncnc43)C2)n1 (stereo partly drawn) [Compound 52, N-((1s,3s)-3-(6-((1-(2-(1-((2-(2,6-dioxopiperidin-3-yl)-1,3-dioxoisoindolin-4-yl)glycyl)piperidin-4-yl)acetyl)piperidin-4-yl)amino)-9H-purin-9-yl)cyclobutyl)-6-methylpicolinamide] | 70% | 30% | 10% | 40% | 40% | 50%
3 | Cc1cccc(C(=O)NC2CC(n3cnc4c(Nc5ccc(N6CCN(C(=O)COc7ccc8c(c7)C(=O)N([C@H]7CCC(=O)NC7=O)C8=O)CC6)cc5)ncnc43)C2)n1 (stereo partly drawn) [Compound 84, N-((1s,3s)-3-(6-((4-(4-(2-((2-(2,6-dioxopiperidin-3-yl)-1,3-dioxoisoindolin-5-yl)oxy)acetyl)piperazin-1-yl)phenyl)amino)-9H-purin-9-yl)cyclobutyl)-6-methylpicolinamide] | 70% | 30% | 10% | 50% | 30% | 20%
4 | Cc1cccc(C(=O)NC2CC(n3cnc4c(Nc5ccc(N6CCN(C(=O)COc7cccc8c7C(=O)N([C@H]7CCC(=O)NC7=O)C8=O)CC6)cc5)ncnc43)C2)n1 (stereo partly drawn) [Compound 85, N-((1s,3s)-3-(6-((4-(4-(2-((2-(2,6-dioxopiperidin-3-yl)-1,3-dioxoisoindolin-4-yl)oxy)acetyl)piperazin-1-yl)phenyl)amino)-9H-purin-9-yl)cyclobutyl)-6-methylpicolinamide] | 60% | 40% | 30% | 70% | 60% | 50%
5 | Cc1cccc(C(=O)N[C@H]2C[C@@H](n3cnc4c(Nc5ccc(N6CCN(C(=O)CNc7cccc8c7C(=O)N([C@H]7CCC(=O)NC7=O)C8=O)CC6)cc5)ncnc43)C2)n1 [Compound 87, N-((1s,3s)-3-(6-((4-(4-((2-(2,6-dioxopiperidin-3-yl)-1,3-dioxoisoindolin-4-yl)glycyl)piperazin-1-yl)phenyl)amino)-9H-purin-9-yl)cyclobutyl)-6-methylpicolinamide] | 50% | 50% | 40% | 90% | 70% | 50%

More lines, now with the values ahead:

Row | Enzyme degradation CDK9 (% remaining) @ 0.1 μM (CDK9) | Enzyme degradation CDK9 (% remaining) @ 1 μM (CDK9) | Enzyme degradation CDK9 (% remaining) @ 10 μM (CDK9) | Enzyme degradation CDK2 (% remaining) @ 0.1 μM (CDK2) | Enzyme degradation CDK2 (% remaining) @ 1 μM (CDK2) | Enzyme degradation CDK2 (% remaining) @ 10 μM (CDK2) | Structure (SMILES)
6 | 40% | 0% | 0% | 100/100/100% | 100/100/100% | 100/100/100% | Cc1cccc(C(=O)N[C@H]2C[C@@H](n3cnc4c(NC5CCN(CCOC6CCN(c7ccc8c(c7)C(=O)N([C@H]7CCC(=O)NC7=O)C8=O)CC6)CC5)ncnc43)C2)n1 [Compound 47, N-((1s,3s)-3-(6-((1-(2-((1-(2-(2,6-dioxopiperidin-3-yl)-1,3-dioxoisoindolin-5-yl)piperidin-4-yl)oxy)ethyl)piperidin-4-yl)amino)-9H-purin-9-yl)cyclobutyl)-6-methylpicolinamide]
7 | 50% | 20% | 20% | 100/100/100% | 100/100/100% | 100/100/100% | Cc1cccc(C(=O)NC2CC(n3cnc4c(NC5CCN(CCOC6CCN(c7cccc8c7C(=O)N([C@H]7CCC(=O)NC7=O)C8=O)CC6)CC5)ncnc43)C2)n1 (stereo partly drawn) [Compound 48, N-((1s,3s)-3-(6-((1-(2-((1-(2-(2,6-dioxopiperidin-3-yl)-1,3-dioxoisoindolin-4-yl)piperidin-4-yl)oxy)ethyl)piperidin-4-yl)amino)-9H-purin-9-yl)cyclobutyl)-6-methylpicolinamide]
8 | 70% | 0% | 0% | 70% | 20% | 20% | Cc1cccc(C(=O)NC2CC(n3cnc4c(NC5CCN(C(=O)CC6CCN(C(=O)CNc7ccc8c(c7)C(=O)N([C@H]7CCC(=O)NC7=O)C8=O)CC6)CC5)ncnc43)C2)n1 (stereo partly drawn) [Compound 51, N-((1s,3s)-3-(6-((1-(2-(1-((2-(2,6-dioxopiperidin-3-yl)-1,3-dioxoisoindolin-5-yl)glycyl)piperidin-4-yl)acetyl)piperidin-4-yl)amino)-9H-purin-9-yl)cyclobutyl)-6-methylpicolinamide]
9 | 90% | 90% | 10% | 90% | 80% | 70% | Cc1cccc(C(=O)NC2CC(n3cnc4c(NC5CCN(C(=O)CC6CCN(c7ccc8c(c7)C(=O)N([C@H]7CCC(=O)NC7=O)C8=O)CC6)CC5)ncnc43)C2)n1 (stereo partly drawn) [Compound 53, N-((1s,3s)-3-(6-((1-(2-(1-(2-(2,6-dioxopiperidin-3-yl)-1,3-dioxoisoindolin-5-yl)piperidin-4-yl)acetyl)piperidin-4-yl)amino)-9H-purin-9-yl)cyclobutyl)-6-methylpicolinamide]
10 | 0% | 0% | 10% | 20% | 10% | 30% | Cc1cccc(C(=O)N[C@H]2C[C@H](n3cnc4c(NCC5CCN(CC6CCN(C(=O)CNc7cccc8c7C(=O)N(C7CCC(=O)NC7=O)C8=O)CC6)CC5)ncnc43)C2)n1 (stereo partly drawn) [Compound 75, N-((1r,3r)-3-(6-(((1-((1-((2-(2,6-dioxopiperidin-3-yl)-1,3-dioxoisoindolin-4-yl)glycyl)piperidin-4-yl)methyl)piperidin-4-yl)methyl)amino)-9H-purin-9-yl)cyclobutyl)-6-methylpicolinamide]
11 | 30% | 20% | 10% | 100/100/100% | 100/100/100% | 100/100/100% | Cc1cccc(C(=O)NC2CC(n3cnc4c(NCC5CCN(CC6CCN(c7ccc8c(c7)C(=O)N([C@@H]7CCC(=O)NC7=O)C8=O)CC6)CC5)ncnc43)C2)n1 (stereo partly drawn) [Compound 76, N-((1r,3r)-3-(6-(((1-((1-(2-(2,6-dioxopiperidin-3-yl)-1,3-dioxoisoindolin-5-yl)piperidin-4-yl)methyl)piperidin-4-yl)methyl)amino)-9H-purin-9-yl)cyclobutyl)-6-methylpicolinamide]
12 | 0/0/0% | 0/0/0% | 0/0/0% | 20/20/20% | 20/20/20% | 20/20/20% | Cc1cccc(C(=O)N[C@H]2C[C@@H](n3cnc4c(Nc5ccc(N6CCN(CC7CCN(c8ccc9c(c8)C(=O)N([C@H]8CCC(=O)NC8=O)C9=O)CC7)CC6)cc5)ncnc43)C2)n1 [Compound 88, N-((1s,3s)-3-(6-((4-(4-((1-(2-(2,6-dioxopiperidin-3-yl)-1,3-dioxoisoindolin-5-yl)piperidin-4-yl)methyl)piperazin-1-yl)phenyl)amino)-9H-purin-9-yl)cyclobutyl)-6-methylpicolinamide]
